# Data taken from patent US20210246157A1, “CAMPTOTHECIN DERIVATIVES AND PREPARATION METHODS AND APPLICATIONS THEREOF” (priority 2018, published 2021).
# pIC50: −log10 of the molar value.
# Experiments:
# [1] = Solubility test, equilibrium method, UV-visible spectrophotometry; assay type: physicochemical; conditions: thermodynamic from solid
# Protocol: The solubility test is carried out by equilibrium method. […] An appropriate amount of the compound is weighed and dissolved in 1 mL of methanol solution to prepare a control solution with a certain concentration (C0). The concentration of test solution is calculated according to the following formula: Cx=(Ax/A0)C0, wherein Cx is concentration of test solution, Ax is absorbance of test solution, C0 is concentration of control solution, and A0 is absorbance of control solution.
# [2] = tested on: colon cancer cells SW-480; test: In vivo antitumor activity, tumor volume (Example 19); set-up: species or system mice; conditions: for Mouse Tumor Volume: 13.73 mg/kg i.v. once every three days, average, n = 6
# [3] = In vivo antitumor activity study, mouse weight (Example 19); set-up: species or system mice; conditions: 13.73 mg/kg i.v. once every three days
# [4] = Multi-dose in vivo antitumor activity study, mouse weight (Example 20); set-up: species or system mice; conditions: caudal vein once every 2 days
# Protocol: The drugs are administered through the caudal veins of mice once every 2 days for a total of 7 times.
# At the end of the treatment cycle, the orbital venous blood of the mice is collected for later blood routine test, the mice are killed by cervical dislocation method, and tumors are removed immediately and photographed. From day 0, the mice in each group are weighed every three days, and the weights are recorded. The weight average value of each group is calculated, and mouse weight variation curve is drawn according to statistical data. At the end of the treatment cycle, tumors are removed from anesthetized mice immediately and weighted, and the tumor weight of each group is recorded. The tumor inhibition rate (%) is calculated according to the following formula: […]
# [5] = tested on: SW-480; test: Cytotoxicity test (MTT, 72 h); conditions: Homo sapiens, SW480, 72 h, read-out: 50% Inhibiting Concentration value (IC50)
# Protocol: (§1) Cells at logarithmic growth period are inoculated in a 96-well plate overnight, then drugs with a certain gradient concentrations are added, and incubation is carried out in a cell culture chamber (5% CO2, 37° C.) for 72 h.
# [6] = tested on: HT-29; test: Cytotoxicity test (MTT, 72 h); conditions: Homo sapiens, HT-29, 72 h, read-out: 50% Inhibiting Concentration value (IC50)
# Protocol: as §1
# [7] = tested on: HCT-116; test: Cytotoxicity test (MTT, 72 h); conditions: Homo sapiens, HCT-116, 72 h, read-out: 50% Inhibiting Concentration value (IC50)
# Protocol: (§2) In order to investigate the antitumor activities of the compounds, a variety of tumor cell lines for test are selected. Cells at logarithmic growth period are inoculated in a 96-well plate overnight, then drugs with a certain gradient concentrations are added, and incubation is carried out in a cell culture chamber (5% CO2, 37° C.) for 72 h.
# [8] = tested on: A549; test: Cytotoxicity test (MTT, 72 h); conditions: Homo sapiens, A549, 72 h, read-out: 50% Inhibiting Concentration value (IC50)
# Protocol: as §2
# [9] = tested on: H1975; test: Cytotoxicity test (MTT, 72 h); conditions: Homo sapiens, NCI-H1975, 72 h, read-out: 50% Inhibiting Concentration value (IC50)
# Protocol: as §2
# [10] = tested on: HepG2; test: Cytotoxicity test (MTT, 72 h); conditions: Homo sapiens, HepG2, 72 h, read-out: 50% Inhibiting Concentration value (IC50)
# Protocol: as §2
# [11] = tested on: BGC-823; test: Cytotoxicity test (MTT, 72 h); conditions: Homo sapiens, BGC-823, 72 h, read-out: 50% Inhibiting Concentration value (IC50)
# Protocol: as §2
# [12] = tested on: K562; test: Cytotoxicity test (MTT, 72 h); conditions: Homo sapiens, K562, 72 h, read-out: 50% Inhibiting Concentration value (IC50)
# Protocol: as §2
# [13] = tested on: PC3; test: Cytotoxicity test (MTT, 72 h); conditions: Homo sapiens, PC-3, 72 h, read-out: 50% Inhibiting Concentration value (IC50)
# Protocol: as §2
# [14] = tested on: 143B; test: Cytotoxicity test (MTT, 72 h); conditions: Homo sapiens, read-out: 50% Inhibiting Concentration value (IC50)
# Protocol: as §2
# [15] = tested on: MDA-MB-231; test: Cytotoxicity test (MTT, 72 h); conditions: Homo sapiens, MDA-MB-231, 72 h, read-out: 50% Inhibiting Concentration value (IC50)
# Protocol: as §2
# [16] = tested on: Hela; test: Cytotoxicity test (MTT, 72 h); conditions: Homo sapiens, read-out: 50% Inhibiting Concentration value (IC50)
# Protocol: as §2
# [17] = tested on: TPC-1; test: Cytotoxicity test (MTT, 72 h); conditions: Homo sapiens, TPC1, 72 h, read-out: 50% Inhibiting Concentration value (IC50)
# Protocol: as §1
# [18] = tested on: SKOV-3; test: Cytotoxicity test (MTT, 72 h); conditions: Homo sapiens, SK-OV-3, 72 h, read-out: 50% Inhibiting Concentration value (IC50)
# Protocol: as §1
# [19] = tested on: PANC-1; test: Cytotoxicity test (MTT, 72 h); conditions: Homo sapiens, PANC-1, 72 h, read-out: 50% Inhibiting Concentration value (IC50)
# Protocol: as §1
smiles,measurement,setting,value
CCc1c2c(nc3ccc(OC(=O)OCCOCCOCCOCc4cn(CCO[C@H]5O[C@@H](CO)[C@H](O)[C@@H](O)[C@@H]5O)nn4)cc13)-c1cc3c(c(=O)n1C2)COC(=O)[C@]3(O)CC [Compound 58],solubility,[1]; aqueous with cosolvent or surfactant or cyclodextrin,5.33 mg/mL
same,solubility,"[1]; pH 7.4, aqueous buffer",1.58 mg/mL
same,solubility,[1]; saline or isotonic,3.59 mg/mL
same,solubility,[1]; water,2.55 mg/mL
same,Mouse Tumor Volume,[2]; day 0,235.22 mm^3
same,Mouse Tumor Volume,[2]; day 3,202.08 mm^3
same,Mouse Tumor Volume,[2]; day 6,98.87 mm^3
same,Mouse Tumor Volume,[2]; day 9,118.41 mm^3
same,Mouse Tumor Volume,[2]; day 12,80.63 mm^3
same,Mouse Tumor Volume,[2]; day 15,38.37 mm^3
same,Mouse Tumor Volume,[2]; day 18,40.03 mm^3
same,Mouse Tumor Volume,[2]; day 21,7.16 mm^3
same,inhibition rates on colon cancer cell SW-480 compared with CPT-11 (in words),[2]; dosage two-thirds of the molar fraction of CPT-11,significantly higher inhibition rates
same,Mouse Weight,[3]; day 0,23.57 g
same,Mouse Weight,[3]; day 3,23.71 g
same,Mouse Weight,[3]; day 6,24.00 g
same,Mouse Weight,[3]; day 9,24.76 g
same,Mouse Weight,[3]; day 12,24.93 g
same,Mouse Weight,[3]; day 15,24.34 g
same,Mouse Weight,[3]; day 18,24.04 g
same,Mouse Weight,[3]; day 21,24.12 g
same,Mouse Weight,"[4]; day 0, high-dose group (H) 13.73 mg/kg",16.69 g
same,Mouse Weight,"[4]; day 0, low-dose group (L) 3.433 mg/kg",17.94 g
same,Mouse Weight,"[4]; day 0, medium-dose group (M) 6.865 mg/kg",16.55 g
same,Mouse Weight,"[4]; day 3, high-dose group (H) 13.73 mg/kg",17.60 g
same,Mouse Weight,"[4]; day 3, low-dose group (L) 3.433 mg/kg",16.34 g
same,Mouse Weight,"[4]; day 3, medium-dose group (M) 6.865 mg/kg",16.61 g
same,Mouse Weight,"[4]; day 6, high-dose group (H) 13.73 mg/kg",16.26 g
same,Mouse Weight,"[4]; day 6, low-dose group (L) 3.433 mg/kg",16.36 g
same,Mouse Weight,"[4]; day 6, medium-dose group (M) 6.865 mg/kg",15.81 g
same,Mouse Weight,"[4]; day 9, high-dose group (H) 13.73 mg/kg",17.28 g
same,Mouse Weight,"[4]; day 9, low-dose group (L) 3.433 mg/kg",17.00 g
same,Mouse Weight,"[4]; day 9, medium-dose group (M) 6.865 mg/kg",17.23 g
same,Mouse Weight,"[4]; day 12, high-dose group (H) 13.73 mg/kg",16.88 g
same,Mouse Weight,"[4]; day 12, low-dose group (L) 3.433 mg/kg",16.96 g
same,Mouse Weight,"[4]; day 12, medium-dose group (M) 6.865 mg/kg",16.17 g
same,Mouse Weight,"[4]; day 15, high-dose group (H) 13.73 mg/kg",16.61 g
same,Mouse Weight,"[4]; day 15, low-dose group (L) 3.433 mg/kg",16.41 g
same,Mouse Weight,"[4]; day 15, medium-dose group (M) 6.865 mg/kg",15.46 g
same,Mouse Weight,"[4]; day 18, high-dose group (H) 13.73 mg/kg",16.06 g
same,Mouse Weight,"[4]; day 18, low-dose group (L) 3.433 mg/kg",17.28 g
same,Mouse Weight,"[4]; day 18, medium-dose group (M) 6.865 mg/kg",16.47 g
same,Mouse Weight,"[4]; day 21, high-dose group (H) 13.73 mg/kg",16.50 g
same,Mouse Weight,"[4]; day 21, low-dose group (L) 3.433 mg/kg",16.97 g
same,Mouse Weight,"[4]; day 21, medium-dose group (M) 6.865 mg/kg",16.65 g
same,pIC50,[5],6.60
same,pIC50,[6],5.28
same,pIC50,[7],5.70
same,pIC50,[8],5.52
same,pIC50,[9],5.03
same,pIC50,[10],6.20
same,pIC50,[11],6.67
same,pIC50,[12],5.78
same,pIC50,[13],5.60
same,pIC50,[14],5.11
same,pIC50,[15],6.28
same,pIC50,[16],5.44
same,pIC50,[17],4.95
same,pIC50,[18],6.12
same,pIC50,[19],5.44
